# Data published in ChEMBL document CHEMBL4765464, “Discovery of BMS-986144, a Third-Generation, Pan-Genotype NS3/4A Protease Inhibitor for the Treatment of Hepatitis C Virus Infection” (J Med Chem, 2020).
# Columns and labels:
# [1] = Inhibition of recombinant full length NS3/4A protease in Hepatitis C virus subtype 3a infected in human HuH7 cells using Ac-Asp-Glu-Asp (EDANS)-Glu-Glu-Abu-(COO) Ala-Ser-Lys (DABCYL)-NH2 as substrate by FRET assay; conditions: Huh-7
# [2] = Inhibition of HCV 3a NS3/4A protease; parameters: species or system Hepatitis C virus subtype 3a
# [3] = Ratio of drug concentration in liver to plasma in rat at 5 mg/kg, po measured upto 24 hrs; format: ADME, organism-based; conditions: liver and plasma
# [4] = Inhibition of HCV 1a NS3/4A protease preincubated for 45 mins in presence of compound; parameters: species or system Hepatitis C virus subtype 1a
# [5] = Half life in rat at 1 mg/kg, iv; format: ADME, organism-based; conditions: in vivo
# [6] = Clearance in cynomolgus monkey at 3 mg/kg, po or 1 mg/kg, iv; format: ADME, organism-based, Macaca fascicularis; conditions: in vivo
# [7] = AUC in cynomolgus monkey at 3 mg/kg, po or 1 mg/kg, iv; format: ADME, organism-based, Macaca fascicularis; parameters: dose 3 mg/kg; conditions: in vivo
# [8] = Inhibition of HCV 5a NS3/4A protease; parameters: species or system Hepatitis C virus subtype 5a
# [9] = Inhibition of recombinant full length NS3/4A D168V mutant protease in Hepatitis C virus subtype 1b replicon infected in human HuH7 cells preincubated for 3 days followed by substrate addition and measured after 2 hrs by renilla luciferase reporter gene assay; format: cell-based; conditions: Huh-7
# [10] = Clearance in rat at 5 mg/kg, po or 1 mg/kg, iv; format: ADME, organism-based; conditions: in vivo
# [11] = Cmax in rat at 5 mg/kg, po; format: ADME, organism-based; parameters: route oral, dose 5 mg/kg; conditions: in vivo
# [12] = Oral bioavailability in dog at 3 mg/kg; format: ADME, organism-based, Canis lupus familiaris; conditions: in vivo
# [13] = Inhibition of HCV 4a NS3/4A protease preincubated for 45 mins in presence of compound; parameters: species or system Hepatitis C virus subtype 4a
# [14] = Drug concentration in cynomolgus monkey plasma at 3 mg/kg, po measured upto 24 hrs; format: ADME, organism-based, Macaca fascicularis; conditions: read-out: Ct
# [15] = Selectivity index, ratio of IC50 for inhibition of HCV 5a NS3/4A protease to IC50 for inhibition of HCV 5a NS3/4A protease preincubated for 45 mins in presence of compound
# [16] = AUC (0 to 24 hrs) in rat at 5 mg/kg, po; format: ADME, organism-based; parameters: time < 24 hr, route oral, dose 5 mg/kg; conditions: in vivo
# [17] = Inhibition of recombinant full length NS3/4A protease in Hepatitis C virus subtype 1a replicon infected in human HuH7 cells preincubated for 3 days followed by substrate addition and measured after 2 hrs by renilla luciferase reporter gene assay; format: cell-based; conditions: Huh-7
# [18] = Selectivity index, ratio of IC50 for inhibition of HCV 3a NS3/4A protease to IC50 for inhibition of HCV 3a NS3/4A protease preincubated for 45 mins in presence of compound
# Cytochrome P450 3A4 [19] = molecular target: T1, Cytochrome P450 3A4 (Homo sapiens, UniProt P08684); assay: Inhibition of human CYP3A4 in human pooled liver microsomes in presence of testosterone as substrate preincubated for 30 mins in presence of NADPH followed by addition of substrate by LC-MS/MS analysis; format: ADME
# T1 sequence (P08684 whole entry): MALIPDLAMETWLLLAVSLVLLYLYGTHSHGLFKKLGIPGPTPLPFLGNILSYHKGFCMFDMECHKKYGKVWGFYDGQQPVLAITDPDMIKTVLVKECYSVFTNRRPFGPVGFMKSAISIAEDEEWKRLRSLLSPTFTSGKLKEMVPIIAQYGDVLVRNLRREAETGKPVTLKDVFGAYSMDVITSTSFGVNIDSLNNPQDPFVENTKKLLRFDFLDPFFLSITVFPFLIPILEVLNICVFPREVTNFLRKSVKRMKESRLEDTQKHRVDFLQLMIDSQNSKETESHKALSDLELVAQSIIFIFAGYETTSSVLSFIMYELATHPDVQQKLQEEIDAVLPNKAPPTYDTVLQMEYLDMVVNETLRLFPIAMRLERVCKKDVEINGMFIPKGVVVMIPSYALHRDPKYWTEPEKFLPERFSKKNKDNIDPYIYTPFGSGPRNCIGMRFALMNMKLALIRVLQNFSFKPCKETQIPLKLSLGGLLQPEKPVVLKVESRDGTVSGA
# Cytochrome P450 3A4 [20] = molecular target: T1, Cytochrome P450 3A4; assay: Inhibition of human CYP3A4 in human pooled liver microsomes in presence of midazolam as substrate preincubated for 0 mins in presence of NADPH followed by addition of substrate by LC-MS/MS analysis; format: ADME
# [21] = Inhibition of HCV 1a NS3/4A protease; parameters: species or system Hepatitis C virus subtype 1a
# [22] = Drug concentration in rat plasma at 5 mg/kg, po measured upto 24 hrs; format: ADME, organism-based; conditions: read-out: Ct
# Cytochrome P450 3A4 [23] = molecular target: T1, Cytochrome P450 3A4; assay: Inhibition of human CYP3A4 in human pooled liver microsomes at 0.002 to 40 uM in presence of testosterone as substrate preincubated in presence of NADPH followed by addition of substrate by LC-MS/MS analysis; format: ADME; conditions: TDE = time-dependent effect, dose 0.002-40 µM, time <=30 min
# [24] = Inhibition of HCV 6a NS3/4A protease preincubated for 45 mins in presence of compound; parameters: species or system Hepatitis C virus subtype 6a
# [25] = Selectivity index, ratio of IC50 for inhibition of HCV 4a NS3/4A protease to IC50 for inhibition of HCV 4a NS3/4A protease preincubated for 45 mins in presence of compound
# [26] = Inhibition of HCV 2a NS3/4A protease preincubated for 45 mins in presence of compound; parameters: species or system Hepatitis C virus subtype 2a
# [27] = Oral bioavailability in rat at 5 mg/kg; format: ADME, organism-based; conditions: in vivo
# [28] = Inhibition of recombinant full length NS3/4A protease in Hepatitis C virus subtype 2a replicon infected in human HuH7 cells preincubated for 3 days followed by substrate addition and measured after 2 hrs by renilla luciferase reporter gene assay; format: cell-based; conditions: Huh-7
# [29] = AUC in rat at 5 mg/kg, po or 1 mg/kg, iv; format: ADME, organism-based; parameters: dose 5 mg/kg; conditions: in vivo
# Cytochrome P450 3A4 [30] = molecular target: T1, Cytochrome P450 3A4; assay: Inhibition of human CYP3A4 in human pooled liver microsomes in presence of testosterone as substrate preincubated for 0 mins in presence of NADPH followed by addition of substrate by LC-MS/MS analysis; format: ADME
# Cytochrome P450 3A4 [31] = molecular target: T1, Cytochrome P450 3A4; assay: Inhibition of human CYP3A4 in human pooled liver microsomes at 0.002 to 40 uM in presence of midazolam as substrate preincubated in presence of NADPH followed by addition of substrate by LC-MS/MS analysis; format: ADME; conditions: TDE = time-dependent effect, dose 0.002-40 µM, time <=30 min
# [32] = Metabolic stability in human liver microsomes assessed as half-life incubated for 5 to 45 mins in presence of NADPH by LC-MS analysis; format: ADME, Microsome; conditions: time 5-45 min
# [33] = Selectivity index, ratio of IC50 for inhibition of HCV 1a NS3/4A protease to IC50 for inhibition of HCV 1a NS3/4A protease preincubated for 45 mins in presence of compound
# [34] = Half-life in rat at 5 mg/kg, po or 1 mg/kg, iv; format: ADME, organism-based; conditions: in vivo
# [35] = Inhibition of HCV 1b NS3/4A protease preincubated for 45 mins in presence of compound; parameters: species or system Hepatitis C virus subtype 1b
# [36] = Inhibition of recombinant full length NS3/4A protease in Hepatitis C virus subtype 1b replicon infected in human HuH7 cells preincubated for 3 days followed by substrate addition and measured after 2 hrs by renilla luciferase reporter gene assay; format: cell-based; conditions: Huh-7
# [37] = Half-life in dog at 3 mg/kg, po or 1 mg/kg, iv; format: ADME, organism-based, Canis lupus familiaris; conditions: in vivo
# [38] = Inhibition of HCV 2b NS3/4A protease; parameters: species or system Hepatitis C virus subtype 2b
# [39] = Inhibition of HCV 4a NS3/4A protease; parameters: species or system Hepatitis C virus subtype 4a
# [40] = Inhibition of HCV 2a NS3/4A protease; parameters: species or system Hepatitis C virus subtype 2a
# Cytochrome P450 3A4 [41] = molecular target: T1, Cytochrome P450 3A4; assay: Inhibition of human CYP3A4 in human pooled liver microsomes in presence of midazolam as substrate preincubated for 30 mins in presence of NADPH followed by addition of substrate by LC-MS/MS analysis; format: ADME
# [42] = Inhibition of HCV 6a NS3/4A protease; parameters: species or system Hepatitis C virus subtype 6a
# [43] = Inhibition of HCV 5a NS3/4A protease preincubated for 45 mins in presence of compound; parameters: species or system Hepatitis C virus subtype 5a
# [44] = Drug concentration in dog plasma at 3 mg/kg, po measured upto 24 hrs; format: ADME, organism-based, Canis lupus familiaris; conditions: read-out: Ct
# [45] = Drug concentration in rat liver at 5 mg/kg, po measured upto 24 hrs; format: ADME, organism-based; conditions: read-out: Ct
# [46] = AUC in dog at 3 mg/kg, po or 1 mg/kg, iv; format: ADME, organism-based, Canis lupus familiaris; parameters: dose 3 mg/kg; conditions: in vivo
# [47] = Inhibition of HCV 3a NS3/4A protease preincubated for 45 mins in presence of compound; parameters: species or system Hepatitis C virus subtype 3a
compound,measurement,setting,value
CC[C@@H]1C[C@H](C)CC/C=C\[C@@H]2C[C@@]2(C(=O)NS(=O)(=O)C2(C)CC2)NC(=O)[C@@H]2C[C@@H](Oc3nccc4cc(OC)c(F)cc34)CN2C(=O)[C@H]1NC(=O)OC(C)(C)C(F)(F)F,IC50,[1],6.3 nM
same,IC50,[2],5.6 nM
same,Kp at 24 h,[3],1.5
same,IC50,[4],0.2 nM
same,half-life,[5],9.3 h
same,clearance,[6],9.3 mL/min/kg
same,AUC,[7],0.898 µM·h
same,IC50,[8],1 nM
same,EC50,[9],6 nM
same,clearance,[10],0.3 mL/min/kg
same,Cmax,[11],12.1 µM
same,bioavailability,[12],87%
same,IC50,[13],0.1 nM
same,concentration at 24 h,[14],0.001 µM
same,Selectivity Index,[15],10
same,AUC(0-t) at 24 h,[16],151 µM·h
same,EC50,[17],2.8 nM
same,Selectivity Index,[18],1
same,IC50,Cytochrome P450 3A4 [19],3020 nM
same,IC50,Cytochrome P450 3A4 [20],> 40000 nM
same,IC50,[21],0.8 nM
same,concentration at 24 h,[22],3.85 µM
same,inhibition (INH),Cytochrome P450 3A4 [23],Tde
same,IC50,[24],0.1 nM
same,Selectivity Index,[25],9
same,IC50,[26],0.2 nM
same,bioavailability,[27],50%
same,EC50,[28],1.4 nM
same,AUC,[29],241 µM·h
same,IC50,Cytochrome P450 3A4 [30],> 40000 nM
same,inhibition (INH),Cytochrome P450 3A4 [31],Tde
same,half-life,[32],0.467 h
same,Selectivity Index,[33],4
same,half-life,[34],9.3 h
same,IC50,[35],0.1 nM
same,EC50,[36],1.1 nM
same,half-life,[37],8.2 h
same,IC50,[38],2 nM
same,IC50,[39],0.9 nM
same,IC50,[40],0.7 nM
same,IC50,Cytochrome P450 3A4 [41],2850 nM
same,IC50,[42],0.7 nM
same,IC50,[43],0.1 nM
same,concentration at 24 h,[44],0.838 µM
same,concentration at 24 h,[45],5.83 µM
same,AUC,[46],81 µM·h
same,IC50,[47],7.5 nM
